Experimental findings from patent US10464890B2, “PGAM1 inhibitors and methods related thereto” (Emory University, priority 2011, dated 2019) are described below.

This experiment concerns H1299 cells with stable knockdown of PGAM1. Kind of experiment: 14C-serine synthesis assay. The class given is cell-based, human. Conditions: methyl-2-PG. The method, then:
Serine synthesis flux from ^14C glucose was measured as described previously (Parry, 1957) with modification. Sub-confluent cells seeded on a 6 cm dish were incubated in complete medium spiked with 40 μCi/ml of D-[U-^14C]-glucose overnight. The incubated cells were lysed with hypotonic lysis buffer (20 mM HEPES (pH 7.0), 5 mM KCl, 1 mM MgCl2, 5 mM DTT, and protease inhibitor cocktail), and the cell lysates were spun down by centrifugation to remove cell debris. The supernatant containing 100 μg of total protein was spotted onto Whatman 3MM paper. One-dimensional chromatogram was run in water saturated phenol, and two-dimentional chromatogram was run in 1-butanol:acetic acid:water solution at the ratio of 100:22:50. L-serine (Sigma) was used as a standard. L-serine dissolved in hypotonic lysis buffer was spotted onto another paper, which was run under the same conditions in parallel with the cell lysate sample. Spots of amino acids were developed by ninhydrin reaction. The spot corresponding to serine was identified based on R^f values of L-serine standard, cut out from the paper, and directly subjected to scintillation counting.

Consider `COC(=O)[C@@H](CO)OP(=O)(O)O` [methyl-2-PG, methyl ester of D(+)-2-phosphoglyceric acid, reference compound], for which the serine biosynthesis entry is recorded as “rescues the phenotype”.
